Assay results taken from publication PMC8155467 (ACS Central Science, 2021).

Experiments:
[1] = target: AKR1B10_C299A mutant (Homo sapiens, UniProt O60218, C299A); assay: AKR1B10 Inhibition Assay; assay type: biochemical; details: VC59 0.5-50 µM, 1 h; tolrestat, isolithocholic acid 500 nM, 15 min
[2] = target: AKR1B10 (Homo sapiens, UniProt O60218); details: cited from earlier work
AKR1B10, sequence (O60218 whole entry): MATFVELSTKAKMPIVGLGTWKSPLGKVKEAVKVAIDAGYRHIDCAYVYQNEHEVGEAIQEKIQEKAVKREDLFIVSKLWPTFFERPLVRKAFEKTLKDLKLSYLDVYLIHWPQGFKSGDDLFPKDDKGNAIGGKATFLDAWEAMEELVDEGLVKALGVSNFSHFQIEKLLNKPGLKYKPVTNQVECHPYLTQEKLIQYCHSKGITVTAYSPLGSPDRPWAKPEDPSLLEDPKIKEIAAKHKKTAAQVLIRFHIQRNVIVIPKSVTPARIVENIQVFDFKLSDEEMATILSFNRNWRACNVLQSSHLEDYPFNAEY

AKR1B10_C299A mutant, sequence (O60218 whole entry C299A): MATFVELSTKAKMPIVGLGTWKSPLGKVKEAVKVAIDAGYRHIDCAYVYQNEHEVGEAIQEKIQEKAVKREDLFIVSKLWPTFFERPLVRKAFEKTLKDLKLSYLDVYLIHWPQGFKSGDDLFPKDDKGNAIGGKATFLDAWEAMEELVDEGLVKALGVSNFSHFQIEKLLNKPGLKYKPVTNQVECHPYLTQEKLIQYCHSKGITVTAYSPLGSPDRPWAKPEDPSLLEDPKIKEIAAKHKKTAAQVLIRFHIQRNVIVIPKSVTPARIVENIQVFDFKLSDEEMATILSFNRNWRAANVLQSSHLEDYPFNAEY

SMILES | inhibition of AKR1B10_C299A mutant reductase activity (NADPH absorbance assay) [1] | inhibition of AKR1B10 activity by natural electrophilic compounds engaging C299 [2]
COc1ccc2c(C(=S)N(C)CC(=O)O)cccc2c1C(F)(F)F [tolrestat] | maintained sensitivity | 
C[C@H](CCC(=O)O)[C@H]1CC[C@H]2[C@@H]3CC[C@@H]4C[C@@H](O)CC[C@]4(C)[C@H]3CC[C@]12C [isolithocholic acid] | maintained sensitivity | 
CCCCC[C@H](O)/C=C/[C@H]1C=CC(=O)[C@@H]1CCCCCCC(=O)O [prostaglandin A1] |  | inhibit AKR1B10 activity
